How the values were obtained:
[1] = target: T1, mammalian GABAA α1β3γ2 receptor (Homo sapiens, UniProt P14867+P18507+P28472); test: whole-cell planar patch clamp, block of GABA EC80 current in transfected HEK293 cells; format: cell-based
T1 construct: gene GABRA1; with GABRB3 (β3) and GABRG2 (γ2) subunits

[2] = target: T1, mammalian GABAA α1β3γ2 receptor; test: whole-cell planar patch clamp, block of GABA EC80 current in transfected HEK293 cells (antagonist positive control); format: cell-based

T1 sequence (P14867 28-456): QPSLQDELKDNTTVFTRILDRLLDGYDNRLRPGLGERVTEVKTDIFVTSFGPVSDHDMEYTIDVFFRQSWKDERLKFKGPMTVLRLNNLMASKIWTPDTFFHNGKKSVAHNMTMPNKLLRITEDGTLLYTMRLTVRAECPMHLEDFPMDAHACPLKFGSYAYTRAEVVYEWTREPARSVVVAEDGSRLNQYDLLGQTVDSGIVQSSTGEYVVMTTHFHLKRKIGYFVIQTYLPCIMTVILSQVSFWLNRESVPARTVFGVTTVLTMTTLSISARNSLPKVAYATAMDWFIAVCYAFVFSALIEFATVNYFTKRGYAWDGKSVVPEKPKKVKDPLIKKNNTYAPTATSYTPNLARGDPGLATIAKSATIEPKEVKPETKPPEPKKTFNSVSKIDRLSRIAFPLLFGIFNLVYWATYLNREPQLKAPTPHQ
T1 sequence (P28472 26-473): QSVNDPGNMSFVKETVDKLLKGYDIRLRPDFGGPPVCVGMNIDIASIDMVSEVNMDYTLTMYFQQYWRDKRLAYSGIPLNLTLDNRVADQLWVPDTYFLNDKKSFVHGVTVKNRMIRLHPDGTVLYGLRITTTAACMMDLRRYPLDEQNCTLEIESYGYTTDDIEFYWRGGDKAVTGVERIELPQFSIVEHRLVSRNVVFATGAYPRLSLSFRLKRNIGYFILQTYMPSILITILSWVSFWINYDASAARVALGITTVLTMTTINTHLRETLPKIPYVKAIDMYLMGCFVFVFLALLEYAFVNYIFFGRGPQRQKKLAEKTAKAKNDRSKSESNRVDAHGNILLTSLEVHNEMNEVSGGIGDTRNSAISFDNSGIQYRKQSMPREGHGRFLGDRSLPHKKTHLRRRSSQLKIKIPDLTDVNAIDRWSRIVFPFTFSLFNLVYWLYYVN
T1 sequence (P18507 40-475): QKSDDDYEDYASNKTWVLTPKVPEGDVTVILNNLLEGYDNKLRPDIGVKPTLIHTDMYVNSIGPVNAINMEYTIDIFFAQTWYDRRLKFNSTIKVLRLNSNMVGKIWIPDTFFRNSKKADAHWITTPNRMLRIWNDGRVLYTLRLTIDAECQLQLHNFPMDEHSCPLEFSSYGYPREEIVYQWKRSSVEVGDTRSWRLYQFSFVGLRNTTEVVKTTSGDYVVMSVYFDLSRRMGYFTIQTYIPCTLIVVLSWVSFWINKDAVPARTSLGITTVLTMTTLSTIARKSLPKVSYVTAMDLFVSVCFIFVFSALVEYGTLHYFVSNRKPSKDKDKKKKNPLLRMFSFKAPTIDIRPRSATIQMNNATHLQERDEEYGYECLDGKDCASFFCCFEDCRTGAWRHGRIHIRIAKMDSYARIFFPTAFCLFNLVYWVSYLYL

Structure (SMILES) | IC50 [1] [µM] | IC50 [2] [µM]
N#Cc1nn(-c2c(Cl)cc(C(F)(F)F)cc2Cl)c(N)c1[S+]([O-])C(F)(F)F (centres unmarked) [fipronil] | 4.9 | 
C=C(C)[C@@H]1[C@H]2OC(=O)[C@@H]1[C@]1(O)C[C@H]3OC34C(=O)O[C@H]2[C@@]41C.CC(C)(O)[C@@H]1[C@H]2OC(=O)[C@@H]1[C@]1(O)C[C@H]3OC34C(=O)O[C@H]2[C@@]41C (some centres unmarked) [picrotoxin] |  | 3.9
